The text below walks through data of ChEMBL document CHEMBL3259634, “Novel benzopolycyclic amines with NMDA receptor antagonist activity” (Bioorg Med Chem, 2014).

A word on the IC50: it is the concentration that gives 50% inhibition.

This test deals with Glutamate NMDA receptor. Briefly: Antagonist activity at NMDA receptor in primary culture of rat cerebellar granule neurons assessed as inhibition of NMDA-induced intracellular calcium level by fluorescence spectrophotometric analysis. Type of test: cell-based. Background: A change in cytosolic calcium serves as a functional read-out for many receptors and channels.
For `NC12CC3CC(O)(CC(C1)c1ccccc13)C2`, the IC50 was determined as 16.2 µM.

As to `CN(C)C12CC3CC(O)(CC(C1)c1ccccc13)C2`, the IC50 stood at 71.1 µM.

For the compound `NC12CC3CC(F)(CC(C1)c1ccccc13)C2`, the IC50 is 1.93 µM.

Take `CN(C)C12CC3CC(F)(CC(C1)c1ccccc13)C2`: the IC50 was 16.5 µM.

`COC12CC3CC(N)(CC(C1)c1ccccc13)C2`: the IC50 stood at 24.3 µM.

As for `NC12CC3CC(C1)c1ccccc1C(C3)C2`, the IC50 was 0.7 µM.

Regarding `CN(C)C12CC3CC(C1)c1ccccc1C(C3)C2`, the IC50 is 2.3 µM.
